Where two headings read alike, the source gives them in different places.
Key:
[1] = biological target: T1, IκBα ubiquitinating enzyme (SCF complex: ROC1, Cullin1, Skp1, His-TrCP1; with E1, UbcH5b) (Homo sapiens, UniProt P62877+P63208+Q13616+Q9Y297); assay: Measurement of ubiquitinating enzyme activity (IκBα ubiquitination, time-resolved fluorescence with Eu(K)-labeled ubiquitin and XL665-labeled anti-GST antibody); assay type: biochemical
T1 construct: His (polyhistidine); made in house; host or cells: insect cells (baculovirus) for the SCF complex and His-E1; E. coli for His-UBCH5b
Summary of the method: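 Human SCF complex with E1 and UbcH5b ubiquitinated GST-IκBα pre-phosphorylated by IKKβ (2 mM ATP, pH 7.4, 1 h, RT), with Eu(K)-ubiquitin, 30 min RT. Stopped with EDTA, XL665 anti-GST added for 2 h; 665/620 nm TR-FRET ratio. % inhibition versus no-compound control and no-SCF blank gave IC50.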

[2] = tested on: ICAM-1 expression in HT-29 cells; assay: Measurement of ICAM-1 expressing activity (TNFα-induced ICAM-1 expression, cell ELISA); assay type: cell-based; settings: Homo sapiens, Table 6, cell activity inhibition test by method (3), read-out: EVALUATION (IC50 class, inhibition of cell activity)
Procedure: Method 2: Measurement of ICAM-1 expressing activity
2.0 x 10^4 HT-29 cells (ATCC) were plated onto a 96-well plate, and the cells were cultured for 48 hours using a McCoy' 5A medium (GIBCO) containing 10% inactivated fetal calf serum. The culture medium was removed, a culture medium containing a compound to be evaluated (final DMSO concentration of 0.5%) was added, and this was incubated at 37°C for 30 minutes. Thirty ng/mL of human TNFα (GIBCO) was added, and this was incubated at 37°C for 4 hours. After washing once with a washing solution (PBS containing 0.05% Tween 20), ice-cooled methanol was added, and this was left on ice for 10 minutes and then fixed. After removing methanol, PBS containing 1% BSA was added, and blocking was performed by letting this stand at room temperature for 30 minutes. Anti-ICAM-1 antibody (Santa Cruz Biotechnology) was added, and this was left to stand at room temperature for 1 hour. After washing with the washing solution, POD-labeled secondary antibody was added, and this was left to stand at room temperature for 30 minutes. This was washed, 100 µL of 100 mM citric acid buffer (pH4.2) containing 1 mM TMBZ and 0.03% H2O2 was added, and this was reacted at room temperature for 15 minutes. The reaction was terminated with 100 µL of 2 N H2SO4, and the absorbance at 450 nm was measured using ARVO-HTS (Perkin Elmer).
When cells are stimulated with TNFα, IκBα is degraded after ubiquitination resulting in the activation of NFκB and the promotion of the expression of adhesion factor ICAM-1. Therefore, the suppression of ICAM-1 expression described above serves as an indicator to determine the effectiveness of the compound in the cells.

[3] = enzyme activity inhibition test, method (1), Table 5, read-out: EVALUATION

T1 sequence (Q9Y297 whole entry): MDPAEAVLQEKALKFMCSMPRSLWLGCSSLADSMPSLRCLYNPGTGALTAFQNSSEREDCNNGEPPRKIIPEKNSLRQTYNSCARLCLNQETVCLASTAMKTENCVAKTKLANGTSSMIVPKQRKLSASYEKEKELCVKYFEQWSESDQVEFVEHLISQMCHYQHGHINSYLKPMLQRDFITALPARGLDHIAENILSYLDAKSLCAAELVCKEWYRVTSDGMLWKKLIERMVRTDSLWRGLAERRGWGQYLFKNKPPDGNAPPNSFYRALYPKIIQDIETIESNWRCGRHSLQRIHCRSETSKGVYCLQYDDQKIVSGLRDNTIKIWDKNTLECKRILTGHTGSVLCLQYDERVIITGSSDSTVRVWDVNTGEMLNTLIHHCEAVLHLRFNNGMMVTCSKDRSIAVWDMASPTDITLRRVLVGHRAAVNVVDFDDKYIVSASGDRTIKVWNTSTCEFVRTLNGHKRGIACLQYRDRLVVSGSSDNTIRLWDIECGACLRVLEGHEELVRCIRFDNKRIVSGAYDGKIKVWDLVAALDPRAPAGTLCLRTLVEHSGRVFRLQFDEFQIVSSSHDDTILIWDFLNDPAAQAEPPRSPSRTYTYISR
T1 sequence (Q13616 whole entry): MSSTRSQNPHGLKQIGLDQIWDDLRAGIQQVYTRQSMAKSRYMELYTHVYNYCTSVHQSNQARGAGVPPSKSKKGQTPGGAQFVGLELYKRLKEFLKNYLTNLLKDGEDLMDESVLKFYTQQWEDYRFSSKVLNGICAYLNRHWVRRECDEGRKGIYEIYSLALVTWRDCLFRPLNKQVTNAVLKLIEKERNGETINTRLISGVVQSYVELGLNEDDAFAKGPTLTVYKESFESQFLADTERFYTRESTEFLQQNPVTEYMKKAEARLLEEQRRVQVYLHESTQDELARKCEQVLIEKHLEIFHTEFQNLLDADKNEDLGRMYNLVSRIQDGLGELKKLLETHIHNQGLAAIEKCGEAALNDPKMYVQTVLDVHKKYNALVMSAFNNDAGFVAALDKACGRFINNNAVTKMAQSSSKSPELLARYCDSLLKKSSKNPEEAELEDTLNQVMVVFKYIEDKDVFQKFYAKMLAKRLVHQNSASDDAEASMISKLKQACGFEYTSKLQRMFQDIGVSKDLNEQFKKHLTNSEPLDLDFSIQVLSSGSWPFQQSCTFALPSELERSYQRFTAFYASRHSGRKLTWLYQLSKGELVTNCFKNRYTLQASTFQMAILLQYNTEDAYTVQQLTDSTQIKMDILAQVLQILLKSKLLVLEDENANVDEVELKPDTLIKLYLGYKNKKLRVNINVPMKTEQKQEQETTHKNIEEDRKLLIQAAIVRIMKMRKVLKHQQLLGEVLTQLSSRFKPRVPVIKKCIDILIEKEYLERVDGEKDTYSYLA
T1 sequence (P63208 whole entry): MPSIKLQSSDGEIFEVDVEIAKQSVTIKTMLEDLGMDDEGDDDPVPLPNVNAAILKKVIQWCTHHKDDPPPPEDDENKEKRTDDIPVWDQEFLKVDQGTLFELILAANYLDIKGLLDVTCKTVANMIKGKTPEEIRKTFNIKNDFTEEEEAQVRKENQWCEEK
T1 sequence (P62877 whole entry): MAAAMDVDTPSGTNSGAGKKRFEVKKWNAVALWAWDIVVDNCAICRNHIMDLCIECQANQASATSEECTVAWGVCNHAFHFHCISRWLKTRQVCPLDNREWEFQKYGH

IC50 [1, 3] [µM] | IC50 [2] [µM] | SMILES | IC50 [1] [µM]
< 10 | 10 to 20 | O=C(O)c1ccc(N2N=C(c3ccncc3)/C(=C/c3ccc(N4CCCC4)cc3)C2=O)cc1 [Compound 287] | –
< 10 | 10 to 20 | O=C(O)c1ccc(N2N=C(c3ccccn3)/C(=C/c3ccc(-c4ccccc4F)o3)C2=O)cc1 [Compound 290] | –
10 to 20 | 10 to 20 | O=C(O)c1ccc(N2N=C(c3ccccn3)/C(=C/c3ccc(N4CCCC4)cc3)C2=O)cc1 [Compound 291] | –
< 10 | < 40 | CCCCC1=NN(c2ccc(C(=O)O)cc2)C(=O)/C1=C\c1ccc(OCc2ccccc2)c(OC)c1 [Compound 296] | –
10 to 20 | 10 to 20 | CCCCC1=NN(c2ccc(C(=O)O)cc2)C(=O)/C1=C\c1cccc2nccnc12 [Compound 297] | –
< 10 | 10 to 20 | CCCCC1=NN(c2ccc(C(=O)O)cc2)C(=O)/C1=C\c1ccc(N2CCN(C(=O)OC)CC2)cc1 [Compound 298] | –
< 10 | 10 to 20 | CCCCC1=NN(c2ccc(C(=O)O)cc2)C(=O)/C1=C\c1ccc(CO)o1 [Compound 300] | –
10 to 20 | < 10 | CCCCC1=NN(c2ccc(C(=O)O)cc2)C(=O)/C1=C\c1ccc(N2CCCC2)cc1 [Compound 301] | –
< 10 | 10 to 20 | CCCCC1=NN(c2ccc(C(=O)O)cc2)C(=O)/C1=C\c1ccc(-n2ccnc2)cc1 [Compound 302] | –
< 10 | < 10 | CCCCC1=NN(c2ccc(C(=O)O)cc2)C(=O)/C1=C\c1ccc2c(c1)OCCO2 [Compound 303] | –
< 10 | 10 to 20 | CCCCC1=NN(c2ccc(C(=O)O)cc2)C(=O)/C1=C\c1ccc(-n2cccn2)cc1 [Compound 305] | –
10 to 20 | 10 to 20 | CCCCC1=NN(c2ccc(C(=O)O)cc2)C(=O)/C1=C\c1ccc(-n2cncn2)cc1 [Compound 306] | –
< 10 | < 40 | O=C(O)c1ccc(N2N=C(c3cccnc3)/C(=C/c3ccc(CO)o3)C2=O)cc1 [Compound 308] | –
< 10 | < 40 | COc1cc(/C=C2\C(=O)N(c3ccc(C(=O)O)cc3)N=C2C2CC2)ccc1O [Compound 312] | –
< 10 | 10 to 20 | O=C(O)c1ccc(N2N=C(C3CC3)/C(=C/c3ccc4ccccc4c3)C2=O)cc1 [Compound 313] | –
< 10 | 10 to 20 | COc1cc(/C=C2\C(=O)N(c3ccc(C(=O)O)cc3)N=C2C2CC2)ccc1OCc1ccccc1 [Compound 314] | –

IC50 [1, 3] [µM] | IC50 [2] [µM] | SMILES | IC50 [1] [µM]
< 10 | < 10 | O=C(O)c1ccc(N2N=C(C3CC3)/C(=C/c3ccc(CO)o3)C2=O)cc1 [Compound 316] | –
10 to 20 | 10 to 20 | O=C(O)c1ccc(N2N=C(C3CC3)/C(=C/c3ccc(N4CCCC4)cc3)C2=O)cc1 [Compound 317] | –
< 10 | < 10 | O=C(O)c1ccc(N2N=C(C3CC3)/C(=C/c3ccc4c(c3)OCCO4)C2=O)cc1 [Compound 319] | –
< 10 | < 40 | CN1CCN(c2ccc(/C=C3\C(=O)N(c4ccc(C(=O)O)cc4)N=C3C3CC3)cc2)CC1 [Compound 321] | –
< 10 | 10 to 20 | O=C(O)c1ccc(N2N=C(C3CC3)/C(=C/c3ccc(-n4cccn4)cc3)C2=O)cc1 [Compound 322] | –
< 10 | < 40 | O=C(O)c1ccc(N2N=C(C3CC3)/C(=C/c3ccc(-n4cncn4)cc3)C2=O)cc1 [Compound 323] | –
< 10 | < 10 | COc1ccc(C2=NN(c3ccc(C(=O)O)cc3)C(=O)/C2=C\c2ccc3ccccc3c2)cc1 [Compound 325] | –
< 10 | < 10 | COCC1=NN(c2ccc(C(=O)O)cc2)C(=O)/C1=C\c1ccc(CO)o1 [Compound 328] | –
10 to 20 | 10 to 20 | O=C(O)c1ccc(N2N=C(c3ccoc3)/C(=C/c3cccc4nccnc34)C2=O)cc1 [Compound 329] | –
< 10 | < 40 | O=C(O)c1ccc(N2N=C(c3ccncc3)/C(=C/c3ccc(CO)o3)C2=O)cc1 [Compound 334] | –
< 10 | 10 to 20 | CCCCC1=NN(c2ccc(C(=O)O)cc2)C(=O)/C1=C\c1ccc(N2CCN(C)CC2)cc1 [Compound 340] | –
< 10 | 10 to 20 | COc1cc(/C=C2\C(=O)N(c3ccc(C(=O)O)cc3)N=C2C)ccc1OCC(=O)OC(C)(C)C [Compound 346] | –
< 10 | < 40 | CC1=NN(c2ccc(C(=O)O)cc2)C(=O)/C1=C\c1ccc(N2CCCCC2)cc1 [Compound 350] | –
10 to 20 | < 40 | CC1=NN(c2ccc(C(=O)O)cc2)C(=O)/C1=C\c1ccc(F)cc1 [Compound 351] | –
< 10 | 10 to 20 | CC1=NN(c2ccc(C(=O)O)cc2)C(=O)/C1=C\c1ccc2occc2c1 [Compound 370] | –

Further lines, the compound ahead of its results:

SMILES | IC50 [1, 3] [µM] | IC50 [2] [µM] | IC50 [1] [µM]
COc1cc(/C=C2\C(=O)N(c3ccc(C(=O)O)cc3)N=C2Cc2ccccc2)ccc1O [Compound 263] | 10 to 20 | 10 to 20 | –
COc1cc(/C=C2\C(=O)N(c3ccc(C(=O)O)cc3)N=C2Cc2ccccc2)ccc1OCc1ccccc1 [Compound 265] | 10 to 20 | 10 to 20 | –
COC(=O)N1CCN(c2ccc(/C=C3\C(=O)N(c4ccc(C(=O)O)cc4)N=C3Cc3ccccc3)cc2)CC1 [Compound 266] | < 10 | 10 to 20 | –
O=C(O)c1ccc(N2N=C(Cc3ccccc3)/C(=C/c3ccc(-c4ccccc4F)o3)C2=O)cc1 [Compound 267, 4-{3-Benzyl-4-[5-(2-fluorophenyl)-furan-2-ylmethylenc]-5-oxo-4.5-dihydropyrazol-1-yl} benzoic acid] | < 10 | < 10 | –
O=C(O)c1ccc(N2N=C(Cc3ccccc3)/C(=C/c3ccc(CO)o3)C2=O)cc1 [Compound 268] | 10 to 20 | < 40 | –
O=C(O)c1ccc(N2N=C(Cc3ccccc3)/C(=C/c3ccc(-n4ccnc4)cc3)C2=O)cc1 [Compound 271] | 10 to 20 | < 40 | –
O=C(O)c1ccc(N2N=C(Cc3ccccc3)/C(=C/c3ccc4c(c3)OCCO4)C2=O)cc1 [Compound 272] | 10 to 20 | < 10 | –
CN1CCN(c2ccc(/C=C3\C(=O)N(c4ccc(C(=O)O)cc4)N=C3Cc3ccccc3)cc2)CC1 [Compound 274] | 10 to 20 | < 40 | –
COc1ccc(C2=NN(c3ccc(C(=O)O)cc3)C(=O)/C2=C\c2ccc(OCc3ccccc3)c(OC)c2)cc1OC [Compound 277] | < 10 | 10 to 20 | –
COC(=O)N1CCN(c2ccc(/C=C3\C(=O)N(c4ccc(C(=O)O)cc4)N=C3c3ccc(OC)c(OC)c3)cc2)CC1 [Compound 279] | < 10 | 10 to 20 | –
COc1ccc(C2=NN(c3ccc(C(=O)O)cc3)C(=O)/C2=C\c2ccc(CO)o2)cc1OC [Compound 280] | 10 to 20 | < 40 | –
COc1ccc(C2=NN(c3ccc(C(=O)O)cc3)C(=O)/C2=C\c2ccc(N3CCCC3)cc2)cc1OC [Compound 281] | < 10 | 10 to 20 | –
COc1ccc(C2=NN(c3ccc(C(=O)O)cc3)C(=O)/C2=C\c2ccc3c(c2)OCCO3)cc1OC [Compound 283] | < 10 | < 10 | –
CCCCC1=NN(c2ccc(C(=O)O)cc2)C(=O)C1=Cc1ccc(O)c(OC)c1 [Compound 295] | – | 10 to 20 | 10 to 20
COC(=O)N1CCN(c2ccc(C=C3C(=O)N(c4ccc(C(=O)O)cc4)N=C3c3cccnc3)cc2)CC1 [Compound 307] | – | < 40 | 10 to 20
COC(=O)N1CCN(c2ccc(C=C3C(=O)N(c4ccc(C(=O)O)cc4)N=C3C3CC3)cc2)CC1 [Compound 315] | – | < 10 | < 10
COc1ccc(C2=NN(c3ccc(C(=O)O)cc3)C(=O)C2=Cc2ccc(O)c(OC)c2)cc1 [Compound 324] | – | < 10 | < 10
COc1cc(C=C2C(=O)N(c3ccc(C(=O)O)cc3)N=C2c2ccc(F)cc2)ccc1OCc1ccccc1 [Compound 326] | – | < 40 | < 10
COc1ccc(C2=NN(c3ccc(C(=O)O)cc3)C(=O)C2=Cc2ccc3ccccc3c2)cc1OC [Compound 333] | – | 10 to 20 | 10 to 20
COC(=O)c1ccc(COc2ccc(C=C3C(=O)N(c4ccc(C(=O)O)cc4)N=C3C)cc2OC)cc1 [Compound 347] | – | 10 to 20 | < 10
CC1=NN(c2ccc(C(=O)O)cc2)C(=O)C1=Cc1ccc2[nH]ccc2c1 [Compound 349] | – | < 40 | < 10
